The source of these data is patent publication US20220273806A1, “USE OF FLUORINE-CONTAINING COMPOUND-MODIFIED CATIONIC POLYMER AS DRUG CARRIER AND PREPARATION METHOD” (SOOCHOW UNIVERSITY, priority 2020, published 2022).

Read-outs that look alike come from different tables or passages of the source.

In series [1] the test system is mouse eye. The note with it: in vivo.
Method: In order to evaluate the penetrating ability for the cornea, the cornea was subjected to immunofluorescence staining at different time points to observe the penetrating ability. Samples were taken 5 min, 15 min, 30 min, and 60 min after the drug with perfluoroheptanoic acid-modified chitosan was applied. Frozen sections were prepared, and the nuclei of the sections were stained and observed under a confocal microscope as shown in FIG. 4-7. Herein, the red is the fluorescence of the protein label, and the blue is the nucleus of the eye tissue.
Series [2] deals with C57BL/6 mice. The note with it: mouse, in vivo. As to the method: Experimental designers used adriamycin, epirubicin (THP) and fluorescent dye rhodamine B as a bladder perfusion drug respectively to mix with chitosan (1% acetic acid aqueous solution) to prepare chitosan bladder perfusion drug systems. After 1 h of bladder perfusion, the bladder tissue was removed, frozen sections were prepared, the fluorescence intensity of the drug was analyzed with a confocal fluorescence microscope, and the distribution of the drug in the bladder tissue was investigated. […] In order to further investigate the biological safety of chitosan as a drug carrier for perfusion, the designers of the project perfused the mouse bladder with a 15 mg/ml chitosan aqueous solution, stopped the perfusion after 1 h, continued to raise the mice under normal feeding conditions, and recorded the mice weight. […] After dissection, the bladder of the mice in the experimental group was compared with that of the mice in the control group.
Healthy C57BL/6 mice aged 10-12 weeks were divided into three groups, 8 mice/each group. The experimental group was perfused with 15 mg/ml fluorinated chitosan or 1% chitosan in aqueous acetic acid solution for 1 h, once a week for three weeks, and the blank control group was perfused with equal volume of double distilled water. […]

Series [3] deals with Balb/c mice.
From the text: Balb/c mice at week 6 in the hair prohibition period were selected, and on the day before treatment, the mice in the perfluoroheptanoic acid-modified chitosan-metformin group, free metformin group, and blank control group were removed of the equivalent hair on the back and photographed as shown in the figure. Each mouse was uniformly sprayed with the drug according to its own treatment method, and the drug was given once every two days, 100 microliters each time.
Series [4] concerns abdomen skin of mice. The note with it: 1 mg/mL, first three hours.
Method: In vitro diffusion cell construction: the abdomen skin of mice was removed, the fat layer was shaved off, and the skin was fixed on a diffusion cell. 7.5 mL PBS was added to the diffusion cell below the skin, and 0.75 mL perfluoroheptanoic acid-modified chitosan-tranexamic acid and the same concentration of pure tranexamic acid solution were respectively added to the diffusion cell above the skin.
Measurement of tranexamic acid penetration rate: 500 μL of PBS was removed from the bottom of the diffusion cell at 0, 1, and 3 h and the same volume of PBS was supplemented. The content of tranexamic acid was detected under the following HPLC conditions: methanol and 0.05 mol/L KH2PO4-0. 2% H3PO4 solution (volume ratio 5:95) as mobile phase, flow rate 1.0 mL/min, and detection wavelength 210 nm, and the cumulative penetration was calculated.

For the compound “free protein: bovine serum albumin labeled Cy5.5 without fluorine-containing chitosan”, the “penetration into the corneal epithelial cells” value in series [1] is reported as “substantially does not enter”.

Turning to chitosan, in series [2], the “bladder HE staining and CD45 and Ki67 immunofluorescence” value was “severe inflammatory stress and congestion and edema”; the “bladder HE staining and CD45 and Ki67 immunofluorescence, mucosal and epithelial damage” value was “severe inflammatory stress and congestion and edema”.

Consider `CN(C)C(=N)N=C(N)N` [Metformin, metformin], for which the “hair growth on the back” value in series [3] (Day 0), in series [3] (Day 11), in series [3] (Day 13) and in series [3] (Day 17) was “No hair” throughout.

With `NC[C@H]1CC[C@H](C(=O)O)CC1` [pure tranexamic acid, tranexamic acid], the “cumulative penetration of tranexamic acid” value in series [4] is listed as “substantially does not penetrate”.
